Measured values: patent EP4139472B1, “A METHOD FOR BIOTESTING OF A CONDENSED PHASE SUBSTANCES AND/OR MIXTURES ECOTOXICITY AND USE OF THE METHOD IN ECOTOXYCOLOGY” (Uniwersytet Jana Dlugosza w Czestochowie, priority 2020, dated 2021)
Values joined by “and” are separate entries in the source; they are usually repeats but may differ in a detail not shown here. Equal values may be shown once. Read-outs that look alike come from different tables or passages of the source.

Tested on: A. fischeri bacteria
Assay: Bioluminescence inhibition of A. fischeri, modified Microtox Basic Solid Phase Test (synthetic sample with inert auxiliary substance)
Type: cell-based, Aliivibrio fischeri
Conditions: for EC50: Aliivibrio fischeri
Text: According to the invention, instead of a homogeneous solid sample with a relatively large mass (7 g in the Microtox® Basic Solid Phase Test), which is often unreachable for laboratory measurements of expensive or innovative materials, a so-called synthetic sample (as opposed to natural samples, i.e. soils and bottom sediments) of the same mass, containing the tested substance and an inert auxiliary substance (so called solid matrix) is being created. As a result, the synthetic sample simulates the soil contaminated with the tested substance. The synthetic sample prepared in such a way can be dispersed in the diluent and processed further according to the Microtox® Basic Solid Phase Test protocol. The Microtox® Basic Solid Phase Test protocol provides a series of steps covering, in turn: • suspending 7 g of the test sample in 35 ml of diluent in a 50 ml beaker, mixing for 10 min; • taking 2 mL of the suspension described above, while stirring it, into an appropriate cuvette; • performing a series of 1:2 dilutions of the test sample using the diluent; • reconstitution of freeze-dried Aliivibrio fischeri bacteria; • preparation and 15 min incubation of the reagent (10 µL of reconstituted bacteria and 0.5 mL of diluent); • bioluminescence measurement for time zero (bioluminescence before contact with the sample); • adding the reagent to each test sample and to the control cuvette; • incubation for 5 min, measurement of bioluminescence after 5 min incubation of bacteria with the sample; • incubation for another 10 min, measurement of bioluminescence after 15 min incubation of bacteria with the sample. The Microtox® protocol provides for the use of a 30-well incubator block maintaining a temperature of 15° C in the wells of the sample cuvettes and 5.5° C in the well of the bacterial suspension. According to the invention, a sample containing the substance to be test and an auxiliary substance is subjected to the procedure provided for in the Microtox® Basic Solid Phase Test. The pre-suspension is made by mixing the synthetic sample with a diluent (Microtox® Solid Phase Diluent: 3.5% aqueous NaCl solution) in appropriate proportions provided for in the measurement protocol, for example 7 g of the sample is mixed with 35 mL of diluent (weight/volume ratio of the sample to diluent is 1:5 g/mL), but after validation it is possible to use dispersions of any proportion (preferably from 1:4 g/mL to 1:6 g/mL) and scale (preferably samples weighing 3-10 g depending on capacity of the equipment used). In the case of hydrophobic chemicals, it is allowed to suspend them in a mixture of methanol with a diluent (e.g. 4% methanol solution) to increase their solubility. Then, the suspension is stirred in a tall beaker on a stirrer so that, as a result of mixing, the vortex always has the same, repeatable height, equal to half the height of the liquid level. A representative sample for further dilutions is drawn with an automatic pipette while the suspension is stirred, from half the depth of the suspension according to the Microtox® protocol. The further steps in the measurement (including but not limited to dilution, sampling, luminescence measurement, etc.) also follow the Microtox® Basic Solid Phase Test Procedure. […] A representative sample for further dilutions was taken from half the depth of the suspension without stirring interruption according to the Microtox® Basic Solid Phase Test protocol. […] The measurements were carried out in triplicate and the EC50 values were determined after 5 and 15 minutes of exposure. The obtained results with 95% confidence intervals, as well as the correlation coefficients are summarized below, in Table 2. Table 2. EC50 values [mg/L] obtained after 5 and 15 minutes exposure of A. fischeri bacteria to pure valsartan along with the corresponding confidence intervals.

| Structure (SMILES) | EC50 5 min (5 min exposure, 0.160 g pure valsartan + 6.840 g quartz sand in 35 mL diluent, single replicate, 95% confidence interval in brackets) | EC50 15 min (15 min exposure, 0.160 g pure valsartan + 6.840 g quartz sand in 35 mL diluent, single replicate, 95% confidence interval in brackets) | EC50 (5 min, 5 min exposure, 0.160 g pure valsartan + 6.840 g quartz sand in 35 mL diluent, single replicate, 95% confidence interval in brackets, read-out: EC50 5 min) [mg/L] | EC50 (5 min, 5 min exposure, pure valsartan + quartz sand, mean of three replicates, read-out: EC50 5 min, Mean) [mg/L] | EC50 (0.25 h, 15 min exposure, pure valsartan + quartz sand, mean of three replicates, read-out: EC50 15 min, Mean) [mg/L] | EC50 5 min (5 min exposure, 0.200 g losartan potassium + 5.600 g quartz sand in 35 mL diluent (1:[…]), single replicate, 95% confidence interval in brackets) | EC50 15 min (15 min exposure, 0.200 g losartan potassium + 5.600 g quartz sand in 35 mL diluent (1:[…]), single replicate, 95% confidence interval in brackets) | EC50 (5 min, 5 min exposure, 0.200 g losartan potassium + 5.600 g quartz sand in 35 mL diluent (1:[…]), single replicate, 95% confidence interval in brackets, read-out: EC50 5 min) [mg/L] | EC50 (5 min, 5 min exposure, pure losartan potassium + quartz sand, mean of three replicates, read-out: EC50 5 min, Mean) [mg/L] | EC50 (0.25 h, 15 min exposure, 0.200 g losartan potassium + 5.600 g quartz sand in 35 mL diluent (1:[…]), single replicate, 95% confidence interval in brackets, read-out: EC50 15 min) [mg/L] | EC50 (0.25 h, 15 min exposure, pure losartan potassium + quartz sand, mean of three replicates, read-out: EC50 15 min, Mean) [mg/L] |
| --- | --- | --- | --- | --- | --- | --- | --- | --- | --- | --- | --- |
| CCCCC(=O)N(Cc1ccc(-c2ccccc2-c2nnn[nH]2)cc1)[C@H](C(=O)O)C(C)C [valsartan] | 172.06 (102.02-290.17) mg/L and 88.31 (83.90-92.91) mg/L | 341.70 (338.33-358.97) mg/L and 242.80 (103.75-568.26) mg/L and 120.04 (99.20-145.28) mg/L | 169 | 143 ± 38.8 | 235 ± 90.7 | – | – | – | – | – | – |
| CCCCc1nc(Cl)c(CO)n1Cc1ccc(-c2ccccc2-c2nn[nH]n2)cc1 [losartan potassium] | – | – | – | – | – | 594.25 (343.09-1028.98) mg/L and 667.23 (490.17-908.21) mg/L | 694.10 (541.64-889.82) mg/L and 629.33 (172.93-2289.90) mg/L | 490 | 584 ± 72.7 | 654 | 659 ± 26.7 |
